Each block holds one molecule with its values, some of them ahead of it.
How the values were obtained:
[1] = Inhibition of yeast alpha-glucosidase using 4-nitrophenyl-alpha-D-glucopyranoside as substrate incubated for 15 mins by spectrophotometric method; design: species or system Saccharomyces cerevisiae
yeast alpha-glucosidase = assay: Ratio of IC50 for BHK21 cells to IC50 for yeast alpha-glucosidase; assay type: toxicity; conditions: hamster, read-out: Ratio IC50
BHK-21 = assay: Cytotoxicity against BHK21 cells; assay type: cell-based, Mesocricetus auratus; conditions: hamster
Alpha glucosidase = Alpha glucosidase (Homo sapiens, UniProt O43451+P10253+P14410+Q2M2H8); assay: Inhibition of alpha-glucosidase (unknown origin); assay type: protein assay
[2] = Inhibition of yeast alpha-glucosidase using nitrophenol-D-glucopyranoside as substrate incubated for 15 mins; design: species or system Saccharomyces cerevisiae
Saccharomyces cerevisiae [3] = assay: Competitive inhibition of yeast alpha-glucosidase assessed as Vmax for substrate at 6 uM using p-nitrophenyl-alpha-D-glucopyranoside as substrate incubated for 30 mins by Lineweaver-Burk plot method
Saccharomyces cerevisiae [4] = assay: Competitive inhibition of yeast alpha-glucosidase assessed as apparent Km for substrate at 4 uM using p-nitrophenyl-alpha-D-glucopyranoside as substrate incubated for 30 mins by Lineweaver-Burk plot method
Saccharomyces cerevisiae [5] = assay: Competitive inhibition of yeast alpha-glucosidase assessed as Vmax for substrate at 2 uM using p-nitrophenyl-alpha-D-glucopyranoside as substrate incubated for 30 mins by Lineweaver-Burk plot method
Saccharomyces cerevisiae [6] = assay: Competitive inhibition of yeast alpha-glucosidase assessed as apparent Km for substrate at 6 uM using p-nitrophenyl-alpha-D-glucopyranoside as substrate incubated for 30 mins by Lineweaver-Burk plot method
Saccharomyces cerevisiae [7] = assay: Competitive inhibition of yeast alpha-glucosidase assessed as apparent Km for substrate at 2 uM using p-nitrophenyl-alpha-D-glucopyranoside as substrate incubated for 30 mins by Lineweaver-Burk plot method
Saccharomyces cerevisiae [8] = assay: Competitive inhibition of yeast alpha-glucosidase assessed as Vmax for substrate at 4 uM using p-nitrophenyl-alpha-D-glucopyranoside as substrate incubated for 30 mins by Lineweaver-Burk plot method
Saccharomyces cerevisiae [9] = assay: Competitive inhibition of yeast alpha-glucosidase assessed as Vmax for substrate at 10 uM using p-nitrophenyl-alpha-D-glucopyranoside as substrate incubated for 30 mins by Lineweaver-Burk plot method
Saccharomyces cerevisiae [10] = assay: Competitive inhibition of yeast alpha-glucosidase assessed as apparent Km for substrate at 10 uM using p-nitrophenyl-alpha-D-glucopyranoside as substrate incubated for 30 mins by Lineweaver-Burk plot method
Saccharomyces cerevisiae [11] = assay: Competitive inhibition of yeast alpha-glucosidase assessed as Vmax for substrate at 8 uM using p-nitrophenyl-alpha-D-glucopyranoside as substrate incubated for 30 mins by Lineweaver-Burk plot method
Saccharomyces cerevisiae [12] = assay: Competitive inhibition of yeast alpha-glucosidase assessed as apparent Km for substrate at 8 uM using p-nitrophenyl-alpha-D-glucopyranoside as substrate incubated for 30 mins by Lineweaver-Burk plot method

SMILES: Cc1cc(C(=O)C2C(=O)N(C)c3ccccc32)c(C(=O)N2CCCCC2)c(=O)[nH]1 (stereo not given)
- IC50 [1]: 10.2 µM

SMILES: Cc1cc(C(=O)C2C(=O)Nc3ccccc32)c(C(=O)N2CCCC2)c(=O)[nH]1 (stereo not given)
- IC50 [1]: 2.61 µM
- selectivity ratio (yeast alpha-glucosidase): 100
- Activity (BHK-21): Non-Toxic

SMILES: Cc1cc(C(=O)C2C(=O)N(Cc3ccccc3)c3ccc(F)cc32)c(C(=O)N2CCCCC2)c(=O)[nH]1 (stereo not given)
- IC50 [1]: 8.21 µM

SMILES: Cc1cc(C(=O)C2C(=O)N(Cc3ccccc3)c3ccccc32)c(C(=O)N2CCCCC2)c(=O)[nH]1 (stereo not given)
- IC50 [1]: 3.01 µM

SMILES: Cc1cc(C(=O)C2C(=O)Nc3ccccc32)c(C(=O)N2CCCCC2)c(=O)[nH]1 (stereo not given)
- IC50 [1]: 2.67 µM
- selectivity ratio (yeast alpha-glucosidase): 100
- Activity (BHK-21): Non-Toxic

SMILES: Cc1cc2c(c(=O)[nH]1)C(=O)O/C2=C1\C(=O)Nc2ccc(Br)cc21
- IC50 [1]: 33 µM

SMILES: Cc1cc2c(c(=O)[nH]1)C(=O)O/C2=C1\C(=O)Nc2ccccc21
- IC50 [1]: 47.2 µM

SMILES: Cc1cc(C(=O)C2C(=O)Nc3ccc([N+](=O)[O-])cc32)c(C(=O)N2CCCCC2)c(=O)[nH]1 (stereo not given)
- IC50 [1]: 4.56 µM

SMILES: Cc1cc2c(c(=O)[nH]1)C(=O)O/C2=C/c1cc(Br)cs1
- IC50 [2]: 0.24 µM

SMILES: Cc1cc(C(=O)C2C(=O)N(Cc3ccccc3)c3ccc(Br)cc32)c(C(=O)N2CCCCC2)c(=O)[nH]1 (stereo not given)
- IC50 [1]: 2.21 µM
- selectivity ratio (yeast alpha-glucosidase): 100
- Activity (BHK-21): Non-Toxic

SMILES: Cc1cc(/C(O)=C2/C(=O)N(C)c3ccc(Br)cc32)c(C(=O)N2CCCCC2)c(=O)[nH]1
- IC50 [1]: 6.41 µM

SMILES: Cc1cc(/C(O)=C2/C(=O)Nc3ccc(Br)cc32)c(C(=O)N2CCCCC2)c(=O)[nH]1
- IC50 [1]: 2.03 µM
- selectivity ratio (yeast alpha-glucosidase): 100
- Activity (BHK-21): Non-Toxic

The next lines start with results.

- IC50 [1]: 42.5 µM
SMILES: Cc1cc2c(c(=O)[nH]1)C(=O)OC2C1(O)C(=O)N(Cc2ccccc2)c2ccc(Br)cc21 (stereo not given)

- IC50 [1]: 10 µM
SMILES: Cc1cc(C(=O)C2C(=O)N(C)c3ccc(F)cc32)c(C(=O)N2CCCCC2)c(=O)[nH]1 (stereo not given)

- IC50 [1]: 36.1 µM
SMILES: Cc1cc2c(c(=O)[nH]1)C(=O)OC2C1(O)C(=O)N(C)c2ccc(Br)cc21 (stereo not given)

- IC50 (Alpha glucosidase): 10 µM
SMILES: CCC1NC(CC)C(O)C(O)C1O (stereo not given)

- IC50 (Alpha glucosidase): 2.5 µM
SMILES: Nc1ccn(C2OC(CO)[C@@H](O)[C@H]2O)c(=O)n1 (stereo not given in full)

- IC50 [1]: 27.6 µM
SMILES: Cc1cc2c(c(=O)[nH]1)C(=O)OC2C1(O)C(=O)N(C)c2ccccc21 (stereo not given)

- IC50 [1]: 4.02 µM
SMILES: C[C@H]1O[C@H](O[C@H]2[C@H](O)[C@@H](O)[C@@H](O[C@H]3[C@H](O)[C@@H](O)C(O)O[C@@H]3CO)O[C@@H]2CO)[C@H](O)[C@@H](O)[C@@H]1N[C@H]1C=C(CO)[C@@H](O)[C@H](O)[C@H]1O (stereo not given in full) [ACARBOSE]

- Vmax (Saccharomyces cerevisiae [3]): 40 µM/min
- Km (Saccharomyces cerevisiae [4]): 1.79 µM
- Vmax (Saccharomyces cerevisiae [5]): 41.6 µM/min
- Km (Saccharomyces cerevisiae [6]): 1.8 µM
- IC50 [1]: 0.646 µM
- Km (Saccharomyces cerevisiae [7]): 1.64 µM
- Vmax (Saccharomyces cerevisiae [8]): 40 µM/min
- Vmax (Saccharomyces cerevisiae [9]): 40 µM/min
- Km (Saccharomyces cerevisiae [10]): 2.92 µM
- Vmax (Saccharomyces cerevisiae [11]): 41.6 µM/min
- Km (Saccharomyces cerevisiae [12]): 2.54 µM
SMILES: Cc1cc(C(=O)C2C(=O)Nc3ccc(F)cc32)c(C(=O)N2CCCCC2)c(=O)[nH]1 (stereo not given)
- selectivity ratio (yeast alpha-glucosidase): 100
- Activity (BHK-21): Non-Toxic
